# Measured values taken from EP0301034B1, “USE OF 1-(3'TRIFLUOROMETHYL 4'-NITROPHENYL) 4,4-DIMETHYL IMIDAZOLINE 2, 5-DIONE IN THE MANUFACTURE OF A MEDICAMENT FOR THE TREATMENT OF HORMONE-DEPENDENT CANCERS OTHER THAN CANCERS OF THE PROSTATE, THE SKIN AND THE COLON” (ROUSSEL-UCLAF, priority 1986, dated 1988).
# Experiments:
# [1] = tested on: cellules tumorales mammaires MCF-7; experiment: Antiproliferative activity on growth of MCF-7 mammary tumour cells (DNA assay with DABA fluorimetry); type: cell-based; settings: 10⁻⁵M; end of experiment J6; SVF medium; inhibition of DNA increase
# Experimental: (§1) L'activité de la 1-(3'-trifluorométhyl 4'-nitrophényl) 4,4-diméthyl imidazoline 2,5-dione a été déterminée par la mesure de son activité antiproliférative sur la croissance de cellules tumorales mammaires MCF-7 et T 47-D.
# (§2) Les lignées MCF-7 et T 47-D sont maintenues en culture en milieu SVF (1) à 37 °C en atmosphère humide contenant 5% CO₂. Les cellules à subconfluence sont récoltées par trypsination (trypsine 0,05%, EDTA 0,02%) puis rincées par centrifugation douce. Un échantillon des cellules en suspension est compté sur cellule de Malassez.
# (§3) Les cellules resuspendues dans le milieu SVF sont ensemencées à raison de 30.000 cellules par puits dans des plaques multipuits (24 puits de 2,5 cm2). […]
# (§4) L'ADN est dosé par une méthode fluorimétrique utilisant le DABA (Acide 3,5 diaminobenzoïque) (2) 150 microlitres de DABA sont ajoutés dans chaque puits; les plaques sont alors incubées 45 mn à 56°C, puis 1,5 ml d'HCl 1N sont ajoutés. La fluorescence est mesurée à l'aide de fluorimètre (longueur excitatrice : 400 nm, longueur d'onde d'émission : 500 nm). La quantité d'ADN par puits est évaluée par rapport à une gamme étalon obtenue en traitant dans les mêmes conditions un standard d'ADN du thymus de veau.
# [2] = tested on: cellules tumorales mammaires T 47-D; experiment: Antiproliferative activity on growth of T 47-D mammary tumour cells (DNA assay with DABA fluorimetry); type: cell-based; settings: 10⁻⁵M; end of experiment J12; SVF medium; inhibition of DNA increase
# Experimental: as §1, §2, §3, §4
compound,measurement,setting,value
"CC1(C)NC(=O)N(c2ccc([N+](=O)[O-])c(C(F)(F)F)c2)C1=O [1-(3'trifluorométhyl 4'-nitrophényl) 4,4-diméthyl imidazoline 2,5-dione]",inhibe la croissance des cellules MCF-7,[1],30%
same,inhibe la croissance des cellules T 47-D,[2],30%
